These compounds were tested on Mus musculus (assay: Reversal of scopolamine-induced memory deficit in ICR mouse assessed as latency time at 5 mg/kg, po administered 30 min before acquisition trial by passive avoidance test (Rvb =271.0 +/- 14.49 seconds)). Conditions: not given.
Assay type: functional

Structure (SMILES) | Time [s]
COc1ccc(/C=C2\Oc3cc(OCCN4CCCCC4)ccc3C2=O)cc1OC.Cl | 206.8

What follows are compounds tested on Mus musculus (assay: Reversal of scopolamine-induced memory deficit in ICR mouse assessed as latency time at 2 mg/kg, po administered 30 min before acquisition trial by passive avoidance test (Rvb =271.0 +/- 14.49 seconds)). Conditions: not given.
Assay type: functional

Structure (SMILES) | Time [s]
COc1ccc(/C=C2\Oc3cc(OCCN4CCCCC4)ccc3C2=O)cc1OC.Cl | 222.4

Each compound was assayed on Mus musculus (assay: Reversal of scopolamine-induced memory deficit in ICR mouse assessed as latency time at 0.5 mg/kg, ip administered 30 min before acquisition trial by passive avoidance test (Rvb =271.0 +/- 14.49 seconds)). Conditions: route intraperitoneal.
Assay type: functional

Structure (SMILES) | Time [s]
COc1ccc(/C=C2\Oc3cc(OCCN4CCCCC4)ccc3C2=O)cc1OC.Cl | 88.9

Each compound was assayed on Mus musculus (assay: Reversal of scopolamine-induced memory deficit in ICR mouse assessed as latency time at 1 mg/kg, po administered 30 min before acquisition trial by passive avoidance test (Rvb =271.0 +/- 14.49 seconds)). Conditions: not given.
Assay type: functional

Structure (SMILES) | Time [s]
COc1ccc(/C=C2\Oc3cc(OCCN4CCCCC4)ccc3C2=O)cc1OC.Cl | 242.5
COc1ccc2c3c1O[C@H]1C[C@@H](O)C=C[C@@]31CCN(C)C2 [GALANTAMINE] | 212.2

These compounds were tested against T1, Acetylcholinesterase (Mus musculus, UniProt P21836). Conditions: not given.
T1 sequence (P21836 whole entry): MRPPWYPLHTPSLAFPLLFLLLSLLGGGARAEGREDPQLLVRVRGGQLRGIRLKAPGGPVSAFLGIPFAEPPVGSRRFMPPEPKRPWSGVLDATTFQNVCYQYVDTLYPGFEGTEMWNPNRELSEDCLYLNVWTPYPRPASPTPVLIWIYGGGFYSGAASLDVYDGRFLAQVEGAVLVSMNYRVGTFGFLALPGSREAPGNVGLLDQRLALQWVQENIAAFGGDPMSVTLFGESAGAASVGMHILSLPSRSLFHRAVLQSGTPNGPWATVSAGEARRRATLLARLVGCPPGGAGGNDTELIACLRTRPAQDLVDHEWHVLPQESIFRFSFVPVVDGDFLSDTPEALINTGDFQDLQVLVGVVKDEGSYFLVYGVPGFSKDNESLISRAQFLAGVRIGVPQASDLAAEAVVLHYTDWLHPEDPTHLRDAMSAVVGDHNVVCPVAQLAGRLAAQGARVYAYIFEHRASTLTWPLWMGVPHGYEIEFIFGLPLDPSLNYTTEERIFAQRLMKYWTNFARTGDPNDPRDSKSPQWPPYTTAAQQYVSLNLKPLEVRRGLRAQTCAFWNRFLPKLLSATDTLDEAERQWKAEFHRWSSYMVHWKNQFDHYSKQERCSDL

Structure (SMILES) | IC50 [µM]
O=C1/C(=C/c2ccc(O)cc2)Oc2cc(OCCN3CCCCC3)ccc21 | 13.5
O=C1/C(=C/c2ccc(O)cc2)Oc2cc(OCCN3CCCC3)ccc21 | 11.1
CCN(CC)CCOc1ccc2c(c1)O/C(=C\c1ccc(O)cc1)C2=O | 35.5
O=C1/C(=C/c2ccc(O)cc2)Oc2cc(OCCN3CCOCC3)ccc21 | 186
COc1ccccc1/C=C1\Oc2cc(OCCN3CCCCC3)ccc2C1=O | 2.52
COc1cccc(/C=C2\Oc3cc(OCCN4CCCCC4)ccc3C2=O)c1 | 1.15
COc1ccc(/C=C2\Oc3cc(OCCN4CCCCC4)ccc3C2=O)cc1 | 0.9
COc1ccc(/C=C2\Oc3cc(OCCN4CCCCC4)ccc3C2=O)cc1OC.Cl | 0.4
COc1cc(/C=C2\Oc3cc(OCCN4CCCCC4)ccc3C2=O)cc(OC)c1OC | 1.12
COc1ccccc1/C=C1\Oc2cc(OCCN3CCCC3)ccc2C1=O | 2.87
COc1cccc(/C=C2\Oc3cc(OCCN4CCCC4)ccc3C2=O)c1 | 1.61
COc1ccc(/C=C2\Oc3cc(OCCN4CCCC4)ccc3C2=O)cc1 | 2.38
COc1cccc(/C=C2\Oc3cc(OCCN4CCCC4)ccc3C2=O)c1OC | 0.99
COc1ccc(/C=C2\Oc3cc(OCCN4CCCC4)ccc3C2=O)c(OC)c1 | 1.61
COc1ccc(OC)c(/C=C2\Oc3cc(OCCN4CCCC4)ccc3C2=O)c1 | 1.49
COc1ccc(/C=C2\Oc3cc(OCCN4CCCC4)ccc3C2=O)cc1OC | 0.75

Structure (SMILES) | IC50 [µM]
COc1cc(/C=C2\Oc3cc(OCCN4CCCC4)ccc3C2=O)cc(OC)c1 | 4.81
COc1ccc(/C=C2\Oc3cc(OCCN4CCCC4)ccc3C2=O)c(OC)c1OC | 13.7
COc1cc(/C=C2\Oc3cc(OCCN4CCCC4)ccc3C2=O)cc(OC)c1OC | 1.56
COc1cccc(/C=C2\Oc3cc(OCCCN4CCCCC4)ccc3C2=O)c1 | 0.75
COc1ccccc1/C=C1\Oc2cc(OCCCN3CCCC3)ccc2C1=O | 5.93
COc1cccc(/C=C2\Oc3cc(OCCCN4CCCC4)ccc3C2=O)c1 | 4.2
COc1ccc(/C=C2\Oc3cc(OCCCN4CCCC4)ccc3C2=O)cc1 | 3.31
COc1cccc(/C=C2\Oc3cc(OCCCN4CCCC4)ccc3C2=O)c1OC | 1.05
COc1ccc(/C=C2\Oc3cc(OCCCN4CCCC4)ccc3C2=O)c(OC)c1 | 1.66
COc1ccc(OC)c(/C=C2\Oc3cc(OCCCN4CCCC4)ccc3C2=O)c1 | 4.74
COc1ccc(/C=C2\Oc3cc(OCCCN4CCCC4)ccc3C2=O)cc1OC | 1.03
COc1cc(/C=C2\Oc3cc(OCCCN4CCCC4)ccc3C2=O)cc(OC)c1 | 4.63
COc1ccc(/C=C2\Oc3cc(OCCCCN4CCCCC4)ccc3C2=O)cc1OC | 1.52
COc1ccc(/C=C2\Oc3cc(OCCCCCN4CCCCC4)ccc3C2=O)cc1OC | 1.26
COc1ccc(/C=C2\Oc3cc(OCCCN4CCCCC4)ccc3C2=O)cc1OC | 0.89
O=C1/C(=C/c2ccc(O)c(O)c2)Oc2cc(O)ccc21 [SULFURETIN] | 699

Each compound was assayed on Mus musculus (assay: Toxicity in ICR mouse assessed as behavioral changes measured as latency time during acquisition trial at 0.5 to 5 mg/kg, po administered 30 min before acquisition trial by passive avoidance test). Conditions: in vivo, 0.5 h.
Assay type: organism-based
Parameters: dose 0.5-5 mg/kg, route oral

Structure (SMILES) | Activity
COc1ccc(/C=C2\Oc3cc(OCCN4CCCCC4)ccc3C2=O)cc1OC.Cl | Non-toxic

Source: ChEMBL document CHEMBL3352399, “Synthesis of aminoalkyl-substituted aurone derivatives as acetylcholinesterase inhibitors” (Bioorg Med Chem, 2015)
